Results reported in patent publication US12162858B2, “Quinoline derivatives as inhibitors of AXL/MER RTK and CSF1R” (QURIENT CO., LTD., priority 2018, dated 2024).

Legend:
Type in all cases: cell-based
Axl (Ba/F3 cells) = molecular target: T1, Axl (Ba/F3 cells) (Homo sapiens, UniProt P30530); assay: BaF3 viability assay, Axl-dependent cells; settings: read-out: Cellular Axl activity by Ba/F3 assay (IC50)
T1 sequence (P30530 1-894): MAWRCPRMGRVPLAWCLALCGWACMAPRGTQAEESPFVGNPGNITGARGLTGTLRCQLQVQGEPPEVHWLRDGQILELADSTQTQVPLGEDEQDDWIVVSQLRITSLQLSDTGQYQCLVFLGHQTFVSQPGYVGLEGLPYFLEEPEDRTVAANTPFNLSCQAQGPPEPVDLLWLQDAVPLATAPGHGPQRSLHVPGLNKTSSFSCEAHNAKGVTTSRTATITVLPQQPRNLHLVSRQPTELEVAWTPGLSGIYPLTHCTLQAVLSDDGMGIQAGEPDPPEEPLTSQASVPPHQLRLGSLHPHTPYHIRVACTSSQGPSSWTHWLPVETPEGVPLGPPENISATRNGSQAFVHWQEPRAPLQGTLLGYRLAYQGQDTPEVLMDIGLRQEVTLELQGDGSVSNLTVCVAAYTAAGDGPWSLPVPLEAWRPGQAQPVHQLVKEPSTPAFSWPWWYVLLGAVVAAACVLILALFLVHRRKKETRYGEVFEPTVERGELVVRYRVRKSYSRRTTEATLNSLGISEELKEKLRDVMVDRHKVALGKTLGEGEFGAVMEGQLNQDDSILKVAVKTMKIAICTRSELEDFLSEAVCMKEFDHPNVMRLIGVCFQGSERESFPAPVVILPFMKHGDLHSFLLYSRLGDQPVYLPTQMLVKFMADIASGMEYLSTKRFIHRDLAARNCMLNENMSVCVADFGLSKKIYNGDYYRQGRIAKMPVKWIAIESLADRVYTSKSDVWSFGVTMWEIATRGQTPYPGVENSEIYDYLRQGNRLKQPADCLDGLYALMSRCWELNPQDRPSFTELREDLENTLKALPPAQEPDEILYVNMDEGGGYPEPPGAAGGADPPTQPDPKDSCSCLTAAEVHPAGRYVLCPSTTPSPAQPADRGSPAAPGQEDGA
From the text: (§1) In this system, IL-3-dependent Ba/F3 cells are modified to express an activated recombinant kinase (in the present case Axl, Mer and CSF1R). Following removal of IL-3, the modified cells are dependent on the activity of the recombinant kinase for survival and proliferation. Inhibition of such kinase(s) through test compounds reduces survival and proliferation of the cells.
(§2) Cell lines were maintained in growth media (GM) consisting of RPMI 1640 supplemented with 10% FBS. Cells in logarithmic-phase growth were harvested and 5,000 cells were distributed into each well of a 384-well plate in 50 μl GM. Parental cells (or experimental assays where specified) were further supplemented with 2 ng/ml IL-3 to support cell growth and survival. Fifty nanoliters of the indicated reference standard or experimental compound were added to appropriate wells (in duplicate) and the cells were cultured for 48 h at 37° C./5% CO2. Viability was determined by adding 10 μl Cell Titer Glo and measuring luminescence, which is reported as relative light units (RLU) measured in counts per second. The following calculations and formulas are used for data analysis using GraphPad Prism software: The curve fitting was made using the Dose response curves-Inhibition.

Mer (Ba/F3 cells) = molecular target: T2, Mer (Ba/F3 cells) (Homo sapiens, UniProt Q12866); assay: BaF3 viability assay, Mer-dependent cells; settings: read-out: Cellular Mer activity by Ba/F3 assay (IC50)
T2 sequence (Q12866 1-999): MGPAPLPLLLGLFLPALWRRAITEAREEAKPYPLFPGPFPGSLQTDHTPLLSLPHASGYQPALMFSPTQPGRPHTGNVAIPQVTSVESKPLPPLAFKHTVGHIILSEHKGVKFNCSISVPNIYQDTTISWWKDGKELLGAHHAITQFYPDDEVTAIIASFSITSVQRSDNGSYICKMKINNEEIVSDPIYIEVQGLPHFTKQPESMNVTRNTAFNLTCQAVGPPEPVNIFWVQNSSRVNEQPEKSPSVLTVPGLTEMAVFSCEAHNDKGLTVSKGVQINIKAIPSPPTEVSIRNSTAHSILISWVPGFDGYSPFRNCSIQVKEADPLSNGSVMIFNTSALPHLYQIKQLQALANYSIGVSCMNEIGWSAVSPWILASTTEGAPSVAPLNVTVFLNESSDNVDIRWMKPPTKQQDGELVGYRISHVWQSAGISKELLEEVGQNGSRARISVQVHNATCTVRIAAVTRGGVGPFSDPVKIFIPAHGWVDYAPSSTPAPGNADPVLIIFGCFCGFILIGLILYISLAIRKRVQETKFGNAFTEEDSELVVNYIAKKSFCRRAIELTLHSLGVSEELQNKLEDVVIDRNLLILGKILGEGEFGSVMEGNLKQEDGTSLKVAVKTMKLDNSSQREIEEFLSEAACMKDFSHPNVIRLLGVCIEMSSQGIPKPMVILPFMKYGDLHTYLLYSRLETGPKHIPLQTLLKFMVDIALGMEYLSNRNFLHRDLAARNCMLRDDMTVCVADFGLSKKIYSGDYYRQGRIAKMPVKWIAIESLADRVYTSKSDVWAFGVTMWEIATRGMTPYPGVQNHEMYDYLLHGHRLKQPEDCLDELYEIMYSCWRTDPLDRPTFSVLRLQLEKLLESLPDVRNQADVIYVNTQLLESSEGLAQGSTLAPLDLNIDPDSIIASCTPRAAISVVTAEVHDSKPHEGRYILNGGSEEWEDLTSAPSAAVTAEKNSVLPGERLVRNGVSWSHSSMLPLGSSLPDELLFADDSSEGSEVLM
From the text: as §1, §2

CSF1R (Ba/F3 cells) = CSF1R (Ba/F3 cells) (Homo sapiens, UniProt P07333); assay: BaF3 viability assay, CSF1R-dependent cells; settings: read-out: Cellular CSF1R activity by Ba/F3 assay (IC50)
Chain of CSF1R (Ba/F3 cells) (P07333 whole entry, change not shown): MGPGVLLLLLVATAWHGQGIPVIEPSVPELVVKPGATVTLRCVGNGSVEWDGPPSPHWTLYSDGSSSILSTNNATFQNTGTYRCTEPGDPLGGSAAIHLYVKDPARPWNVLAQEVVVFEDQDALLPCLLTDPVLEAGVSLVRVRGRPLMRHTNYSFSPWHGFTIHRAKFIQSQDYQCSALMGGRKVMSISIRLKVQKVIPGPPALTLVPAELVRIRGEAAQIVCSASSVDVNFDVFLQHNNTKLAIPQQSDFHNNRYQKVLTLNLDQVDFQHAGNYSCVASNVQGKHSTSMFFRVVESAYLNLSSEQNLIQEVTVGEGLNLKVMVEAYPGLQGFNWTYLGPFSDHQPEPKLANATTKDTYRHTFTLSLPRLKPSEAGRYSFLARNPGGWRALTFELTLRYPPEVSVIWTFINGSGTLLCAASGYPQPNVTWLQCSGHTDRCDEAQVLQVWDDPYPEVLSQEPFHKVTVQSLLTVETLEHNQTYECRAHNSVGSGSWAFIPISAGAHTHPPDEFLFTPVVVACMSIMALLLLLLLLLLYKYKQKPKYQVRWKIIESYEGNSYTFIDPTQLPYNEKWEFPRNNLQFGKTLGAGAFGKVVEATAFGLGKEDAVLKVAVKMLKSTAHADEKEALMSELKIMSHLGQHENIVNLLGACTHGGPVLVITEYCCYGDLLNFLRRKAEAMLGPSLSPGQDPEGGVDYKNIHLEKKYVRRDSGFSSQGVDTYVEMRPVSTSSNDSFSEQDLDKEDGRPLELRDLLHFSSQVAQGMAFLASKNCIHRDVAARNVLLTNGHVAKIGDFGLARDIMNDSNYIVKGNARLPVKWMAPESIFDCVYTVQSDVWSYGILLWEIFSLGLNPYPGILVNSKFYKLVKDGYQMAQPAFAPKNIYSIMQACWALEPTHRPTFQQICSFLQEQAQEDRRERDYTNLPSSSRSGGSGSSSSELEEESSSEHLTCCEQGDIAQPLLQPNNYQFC
From the text: as §1, §2

Measured: GI50

CCn1cc(OCC(F)(F)F)c(C(=O)Nc2ccc(Oc3ccnc4cc(OC)c(OC)cc34)cn2)n1 [Compound 4]
< 1000 nM: Axl (Ba/F3 cells) | Mer (Ba/F3 cells) | CSF1R (Ba/F3 cells)

CCCn1cc(OCC(F)(F)F)c(C(=O)Nc2ccc(Oc3ccnc4cc(OC)c(OC)cc34)cn2)n1 [Compound 7]
< 1000 nM: Axl (Ba/F3 cells) | Mer (Ba/F3 cells) | CSF1R (Ba/F3 cells)

COCCn1cc(OCC(F)(F)F)c(C(=O)Nc2ccc(Oc3ccnc4cc(OC)c(OC)cc34)cn2)n1 [Compound 10]
< 1000 nM: Axl (Ba/F3 cells) | Mer (Ba/F3 cells) | CSF1R (Ba/F3 cells)

CCCn1cc(OCC(F)F)c(C(=O)Nc2ccc(Oc3ccnc4cc(OC)c(OC)cc34)cn2)n1 [Compound 12]
< 1000 nM: Axl (Ba/F3 cells) | Mer (Ba/F3 cells) | CSF1R (Ba/F3 cells)

COc1cc2nccc(Oc3ccc(NC(=O)c4n[nH]cc4OCC(F)(F)F)nc3)c2cc1OC [Compound 16]
< 1000 nM: Axl (Ba/F3 cells) | Mer (Ba/F3 cells) | CSF1R (Ba/F3 cells)
